Values after ≈ are worked out from the molar mass of the structure shown.
Assays:
[1] = tested on: Mycobacterium tuberculosis H37Rv (ATCC 27294); test: Microplate Alamar Blue Assay (MABA); format: cell-based; settings: M. tuberculosis H37Rv, BACTEC 12B medium, pH 6.8, concentration effecting 90% reduction in fluorescence relative to controls
Experimental: A series of in vitro tests were carried out to determine the properties of known compounds alongside a rhenium derivative of an in vivo imaging agent of the present invention. These tests were the Microplate Alamar Blue Assay (MABA) (Franzblau S et al., J Clin Microbiol 1998, 36, 362-366), the Low Oxygen Recovery Assay (LORA) (Cho et al., Antimicro Agents Chemother 2007, 51, 1380-1385), and the VERO cell cytotoxicity assay to determine IC 50 (Cory A H et al., Cancer Commun 1991, 3, 207-12).
The initial screen was conducted against Mycobacterium tuberculosis H37Rv (ATCC 27294) in BACTEC 12B medium using the Microplate Alamar Blue Assay (MABA). Compounds were tested in ten 2-fold dilutions, typically from 100 μg/mL to 0.19 μg/mL at pH 6.8. The MIC90 is defined as the concentration effecting a reduction in fluorescence of 90% relative to controls. This value was determined from the dose-response curve using a curve-fitting program.

VERO cell = VERO cell cytotoxicity assay; format: cell-based; settings: Chlorocebus sabaeus, 72 hours exposure, Cell Titer Glo viability

`COc1ccc(CSCCNCCN(CCCNC(=O)c2cnccn2)CCSCc2ccc(OC)cc2)cc1` [PZA + Chelate] was tested. Which MIC [1] did it give?
The MIC was 10.4 µg/mL.

And the IC50 (VERO cell)?
Its IC50 is 36.8 µg/mL.

`COc1ccc(CSCCNCCN(CCCN)CCSCc2ccc(OC)cc2)cc1` [Chelate alone] was tested. Which MIC [1] did it give?
The MIC was 1.49 µg/mL (≈ 3.12 µM).

And the IC50 (VERO cell)?
Its IC50 is > 50 µg/mL.

Which MIC [1] does the source give for `NC(=O)c1cnccn1` [Standard drug, Pyrazinamide] here?
Its MIC is > 100 µg/mL.

From patent US20130149249A1, “IMAGING TUBERCULOSIS WITH PYRAZINAMIDE CONTRAST AGENTS” (GE HEALTHCARE LIMITED, priority 2010, published 2013)
